Test results reported in patent publication US20070186301A1, “Mutant BDNF gene introducing knockin mouse” (NATIONAL INSTITUTE OF ADVANCED INDUSTRIAL SCIENCE AND …, priority 2006, published 2007).
Entries after “also recorded” stand apart in the source; their conditions may differ.

B1: BDNF-ML: non-cleavable human proBDNF derivative protein with R125M and R127L, SEQ ID NO:2 (protein)
chain: MTILFLTMVISYFGCMKAAPMKEANIRGQGGLAYPGVRTHGTLESVNGPKAGSRGLTSLADTFEHVIEELLDEDQKVRPNEENNKDADLYTSRVMLSSQVPLEPPLLFLLEEYKNYLDAANMSMMVLRHSDPARRGELSVCDSISEWVTAADKKTAVDMSGGTVTVLEKVPVSKGQLKQYFYETKCNPMGYTKEGCRGIDKRHWNSQCRTTQSYVRALTMDSKKRIGWRFIRIDTSCVCTLTIKRGR
modifications: Non-cleavable human proBDNF mutant

Columns and labels:
[1] = tested on: mutant BDNF gene-knockin mice; experiment: Open field (circular field) quantity of activity after etizolam, mutant mice; format: in vivo, mouse; details: mutant mice aged 4 to 5 weeks; etizolam solution 0.5 mg/kg intraperitoneally; measured from 5 minutes after administration; p<0.001
Protocol: (§1) The abnormal behavior in the mutant BDNF gene-knockin mouse was quantitatively analyzed. An emotional change of the mouse is reflected to the quantity of activity and a behavioral pattern of the mouse when the mouse is placed in a novel environment. The mouse was placed in the novel environment which was an inexperienced circular field (a diameter of 50 cm and a wall height of 40 cm in the field) for 25 to 30 minutes, and the quantity of activity in the meantime was compared between the wild type homozygous mice (wild) and the knockin homozygous mice (mutants). The mouse was placed 30 minutes before the experiment in a room in which the circular field had been disposed, and placed calmly in the circular field using a paper box. The activity of the mouse in the circular field was measured by recording using DV-Track video tracking system supplied from Muromachi Kikai.
(§2) Etizolam is a short term action type GABA, a neurotransmission accelerator (reference: Elder C. A. et al.: Drug Metab. Dispos., vol. 23, 776, 1995). […] A protocol was comprising (I) measuring the total quantity of activity in the mouse for 30 minutes after being placed in the open field, (II) intraperitoneally administering PBS or the etizolam solution (0.5 mg/kg) and (III) returning the mouse in the open field after 5 minutes and measuring the quantity of activity for 30 minutes in the mouse. […]

wild type mice = experiment: Open field (circular field) quantity of activity after etizolam, wild type mice; format: in vivo, mouse; details: wild type mice aged 4 to 5 weeks; etizolam solution 0.5 mg/kg intraperitoneally; measured from 5 minutes after administration; p<0.05
Protocol: as §1, §2

cholinergic nerve cells = experiment: Harmful action of non-cleavable proBDNF derivative on cholinergic nerve cells; format: cell-based
[2] = tested on: cerebellar granular nerve cells; experiment: Harmful action of non-cleavable proBDNF derivative on cerebellar granular nerve cells; format: cell-based

Row | Molecule | effect on abnormal behavior (total behavioral distance / quantity of activity for 30 minutes in the open field) [1] | effect on quantity of activity for 30 minutes in the open field (wild type mice) | action on fibers in cholinergic nerve cells (cholinergic nerve cells) | action on cell death of cerebellar granular nerve cells [2]
1 | CCc1cc2c(s1)-n1c(C)nnc1CN=C2c1ccccc1Cl [etizolam] | inhibitory effect; also recorded: remarkably inhibited | certainly effective |  | 
2 | B1 |  |  | facilitation of dropout of fibers | facilitation of cell death
